This is an account of results in patent US11319317B2, “(Hetero)arylamide compound for inhibiting protein kinase activity” (Shenzhen TargetRx, Inc., priority 2017, dated 2022).

Series [1] relates to Ebola virus. The following applies: in vitro; cited from earlier work.
Series [2] relates to Ba/F3 parent cells. Description: Cytotoxicity experiment (CellTiter-Glo), Ba/F3 parent cells. The series is classed as cell-based. The following applies: Ba/F3 parental cells with 8 ng/ml IL-3, 3 days incubation. The procedure: 1. […] The cell plates were placed in carbon dioxide culture and incubated overnight.
2. Preparation of test compounds: The test compounds were dissolved in DMSO and subjected to a 3.16-fold gradient dilution in triplicate, 9 concentrations were obtained, starting from the concentration of 10 μM.
3. Treatment of Cells with compounds: Compounds at various concentrations were transferred to cell plates. The cell plates were incubated in a carbon dioxide incubator for 3 days.
4. Detection: CellTiter-Glo4 reagent was added to the cell plates, which were incubated for 30 minutes at room temperature to stabilize the luminescence signal. Readings were performed using a PerkinElmer Envision multi-label analyzer.
Background: In ATP-based viability assays light output follows the ATP content of the culture.

A short description of series [3]: Pharmacokinetic experiment in rats. The series is classed as in vivo, Sprague-Dawley rats. More on the design: Cl pred: unit not given here. The following applies: rat; for MRT inf: read-out: MRTINF pred; for F (oral availability): PO 20 mg/kg vs IV 2 mg/kg. The protocol: Rats were fed with a standard diet and water. Fasting began 16 hours before the test. The drugs were dissolved in PEG400 and dimethyl sulfoxide. Blood was collected from the eyelids at a time point of 0.083 hour, 0.25 hour, 0.5 hour, 1 hour, 2 hours, 4 hours, 6 hours, 8 hours, 12 hours, and 24 hours after administration. Rats were briefly anesthetized after inhalation of ether, and 300 μL of blood samples were collected from the eyelids to test tubes. There was 30 μL of 1% heparin salt solution in the test tube. […] After the blood sample was collected at the last time point, rats were anesthetized with ether and sacrificed. Immediately after the collection, blood samples were sufficiently mixed by gently inverting the tube at least 5 times, and were placed on ice. […] Plasma was stored at −80° C. prior to analysis. The concentration of the compounds disclosed herein in plasma was determined by LC-MS/MS. Pharmacokinetic parameters were calculated based on drug concentrations in plasma of each animal at different time points.

In series [4] the test system is CML. The following applies: combined with nilotinib; cited from earlier work.
Setting [5] is: male, Sprague-Dawley, plasma, IV 2 mg/kg single dose.
Setting [6] is: male, Sprague-Dawley, plasma, PO 20 mg/kg single dose.

Where two headings read alike, the source gives them in different places.

As to `Cc1cn(-c2cc(NC(=O)c3ccc(C)c(Nc4nccc(-c5cccnc5)n4)c3)cc(C(F)(F)F)c2)cn1` [nilotinib], the “release of Ebola viral particles from infected cells” value in series [1] was “stop the release of Ebola viral particles”.

In the case of `O=C(Nc1ccc(OC(F)(F)Cl)cc1)c1cnc(N2CC[C@@H](O)C2)c(-c2ccsn2)c1` [Example 1, (R)-6-(3-hydroxypyrrolidin-1-yl)-5-(isothiazol-3-yl)-N-(4-(chlorodifluoromethoxy)phenyl) nicotinamide], the IC50 – broadly, the concentration at which inhibition is half-maximal – in series [2] (Mus musculus, BaF3, 72 h) was above 1000 nM.

`O=C(Nc1ccc(OC(F)(F)Cl)cc1)c1cnc(N2CC[C@@H](O)C2)c(-c2ccns2)c1` [Example 3, (R)-6-(3-hydroxypyrrolidin-1-yl)-5-(isothiazol-5-yl)-N-(4-(chlorodifluoromethoxy)phenyl) nicotinamide]: the IC50 in series [2] (Mus musculus, BaF3, 72 h) was above 1000 nM.

Take `O=C(Nc1ccc(OC(F)(F)Cl)cc1)c1cnc(N2CC[C@@H](O)C2)c(-c2nnn[nH]2)c1` [Example 5, (R)-6-(3-hydroxypyrrolidin-1-yl)-5-(1H-1,2,34-tetrazol-5-yl)-N-(4-(chlorodifluoromethoxy)phenyl)nicotinamide]: the IC50 in series [2] was above 1000 nM.

`O=C(Nc1ccc(OC(F)(F)Cl)cc1)c1cnc(N2CC[C@@H](O)C2)c(-c2cnsc2)c1` [Example 2, (R)-6-(3-hydroxypyrrolidin-1-yl)-5-(isothiazol-4-yl)-N-(4-(chlorodifluoromethoxy)phenyl) nicotinamide]: the IC50 in series [2] (Mus musculus, BaF3, 72 h) was above 1000 nM. In series [3] (setting [5]), the AUC(0-t) (commonly exposure summed from dosing to a finite time, without extrapolation to infinity) is 5450 ng·h/mL; the Cmax (commonly the highest concentration seen after dosing) is 5280 ng/mL; the MRT inf stood at 1.17 h. Besides, the Vd in series [3] (male, Sprague-Dawley, plasma, IV 2 mg/kg single dose, read-out: Vz pred) was 0.57 L/kg. Further, in series [3] (setting [6]), the AUC(0-t) was 21100 ng·h/mL, the Cmax stood at 2580 ng/mL and the MRT inf worked out at 5.13 h. The Cl pred in series [3] (IV 2 mg/kg single dose) was 0.37. In series [3] (PO 20 mg/kg single dose), this compound showed a Cl pred of 0.96 and a Vz pred of 2.56 L/kg. The “F (oral availability)” value in series [3] was found to be 38.70%. The “metabolic parameters (Cmax, AUClast, F %) compared with ABL-001” value in series [3] (oral administration) is listed as “better metabolic parameters”.

Regarding `Cc1ccc(NC(=O)c2ccc(CN3CCN(C)CC3)cc2)cc1Nc1nccc(-c2cccnc2)n1` [Imatinib], the “release of Ebola viral particles from infected cells” value in series [1] is “stop the release of Ebola viral particles”.

For `O=C(Nc1ccc(OC(F)(F)Cl)cc1)c1cnc(N2CC[C@@H](O)C2)c(-c2cnn[nH]2)c1` [Example 4, (R)-6-(3-hydroxypyrrolidin-1-yl)-5-(1H-1,2,3-triazol-5-yl)-N-(4-(chlorodifluoromethoxy)phenyl)nicotinamide], the half-maximal inhibitory concentration (IC50) in series [2] (Mus musculus, BaF3, 72 h) is above 1000 nM.

Regarding `O=C(Nc1ccc(OC(F)(F)Cl)cc1)c1cnc(N2CC[C@@H](O)C2)c(-c2ncns2)c1` [Example 6], the IC50 in series [2] (Mus musculus, BaF3, 72 h) was above 1000 nM.

`O=C(Nc1ccc(OC(F)(F)Cl)cc1)c1cnc(N2CC[C@@H](O)C2)c(-c2ccn[nH]2)c1` [ABL-001, (R)—N-(4-(chlorodifluoromethoxy)phenyl)-6-(3-hydroxypyrrolidin-1-yl)-5-(1H-pyrazol-5-yl)nicotinamide, reference compound]: in series [3], the “F (oral availability)” value is 19.86%. Also, the “eradication of CML in a mouse model” value in series [4] is “effective in eradicating CML”.
